{"source": "patent US20120283096A1", "about": "“AGENT FOR IMPROVING PLANT GROWTH, SEEDS, AND METHOD FOR IMPROVING PLANT GROWTH” (Incorporated Administrative Agency National Agricu lture …, priority 2010, published 2012)", "key": {"[1]": {"tested_on": "soybean", "experiment": "Seedling establishment of soybean seeds with ammonium molybdophosphate (Example 5, FIG. 12)", "type": "in vivo", "settings": "20° C. and 30° C., after two weeks", "protocol": "As in Example 4-1, ammonium sulfate in an equivalent amount of 10 g/m^2 in terms of nitrogen and potassium chloride equivalent to 5 g/m^2 of potassium as potassium oxide were added as a solution to paddy humid soil, on the condition that the weight of dry soil is 100 kg/m^2. The soil was placed into each container (in the shape of a cylinder approximately 7 cm in diameter) in an amount equivalent to 100 g of dry soil, shaken for approximately one hour, and left at rest for two days at 4° C. It should be noted, however, that the soil-to-liquid ratio was 0.7. On this condition, the soil surface became substantially as high as the water surface. Barley seeds (branded as Nishinochikara) and soybean seeds (branded as Fukuyutaka) not subjected to treatment such as soaking in advance were soaked in water for one minute. Immediately after the extra water was removed, the seeds were put with a […] molybdenum amount of ammonium molybdophosphate (purchased from Wako Pure Chemical Industries, Ltd.) per gram of dry seed. The seeds were then half-buried in the samples of soil. […] Six containers were allotted for each condition, and the proportion of seedling establishment (proportion of individual plants that survived) was measured after two weeks."}, "[2]": {"experiment": "Molybdenum concentration of aqueous solutions/supernatants measured by ICP-AES versus calculated values (FIGS. 5 and 6)", "type": "physicochemical", "settings": "water, FIG. 6", "protocol": "Similarly, aqueous solutions of the slightly-soluble molybdenum-containing substances (as indicated by “Slightly-soluble” in the column “Water solubility” in Table 1) in varying concentrations were prepared. […] In particular, ammonium molybdophosphate (MoPNH), which is a salt of a heteroacid, stops dissolving at a molybdenum amount of approximately 0.2 mM or higher, and can therefore be kept at an especially low concentration."}, "[3]": {"tested_on": "paddy rice", "experiment": "Seedling establishment of coated paddy seeds in submerged soil containers (Examples 4-1 to 4-4b, FIGS. 11, 14-19c)", "type": "in vivo", "settings": "germinated seeds, 30° C.", "protocol": "The germinated paddy seeds were soaked for one minute in a tenfold diluted solution of a commercially available laundry starch (manufactured by Rocket Soap Co., Ltd.; My Laundry Starch) containing approximately a little less than 10% by weight of polyvinyl alcohol, centrifuged at 1000 rpm for removal of the extra solution, and, immediately after that, lightly covered with different amounts of ammonium molybdophosphate, whereby seeds with different amounts of ammonium molybdophosphate were prepared.\n(§1) It should also be noted that in each of FIGS. 14 through 15b, the horizontal axis represents the number of moles (mmol) of molybdenum or tungsten that adhered per gram of dry seed. In each of FIGS. 14 through 15b, the dots correspond to the numbers of moles of 0, 0.02, 0.05, 0.1, 0.2, 0.5, 1, and 2 mmol, starting from the left.\nas §1, with “should” for “should also”, “16” for “14”, “18,” for “15b,”, “molybdenum” for “molybdenum or tungsten”\nIt should be noted that in FIG. 19a, the horizontal axis represents the number of moles (mmol) of molybdenum that adhered per gram of dry seed. In FIG. 19a, the dots correspond to the numbers of moles of 0, 0.02, 0.05, 0.1, 0.2, 0.5, 1, and 2 mmol, starting from the left.\nThe resulting seeds were allowed to spend time in a sufficiently wet condition so that the iron rusted, and then allowed to further spend overnight. […] Six containers were allotted for each condition, and the proportion of seedling establishment and the standard error were examined. It should be noted that in FIG. 19b, the horizontal axis represents the number of moles (mmol) of molybdenum that adhered per gram of dry seed. In FIG. 19b, the dots correspond to the numbers of moles of 0, 0.02, 0.05, 0.1, 0.2, 0.5, 1, and 2 mmol, starting from the left.\nSix containers were allotted for each condition, and the proportion of seedling establishment and the standard error were examined. It should be noted that in FIG. 19c, the horizontal axis represents the actual weight ratios of 25 wt % calcium peroxide that adhered with respect to the weight of dry seed. In FIG. 19c, the dots correspond to the actual weight ratios of 25 wt % calcium peroxide of 0, 0.01, 0.02, 0.05, 0.1, 0.2, 0.5, and 1 time, starting from the left."}, "[4]": {"tested_on": "barley", "experiment": "Avoidance of wet damage to barley in a poorly-drained paddy field (Example 7, FIG. 21)", "type": "in vivo", "source_text": "To a poorly-drained paddy field in Chikugo City, Fukuoka Prefecture, 1.2 t/10 a of cow manure and ammonium sulfate in an equivalent amount of 6 kg/10 a in terms of nitrogen were applied. In November 2009, 9 kg/10 a of barley seed (branded as Nishinochikara) was planted. In February 2010, the paddy field was partitioned by corrugated plates into eight areas 50 cm×70 cm each. On Feb. 19, 2010 or Mar. 17, 2010, ammonium molybdophosphate was applied in equivalents amounts of 0, 0.03, 0.1, 0.3 mol/m^2 in terms of molybdenum. On May 11, 2010, the shoots of the barley in the areas partitioned from one another by the corrugated plates were harvested, and the dry weight was obtained."}, "[5]": {"tested_on": "wheat", "experiment": "Seedling establishment of wheat seeds in humid soil (Example 6-1, FIG. 20b)", "type": "in vivo", "settings": "0.01 mmol to 0.5 mmol molybdenum per gram of dry seed, 20° C., after two weeks", "protocol": "As in Example 4-1, ammonium sulfate in an equivalent amount of 10 g/m^2 in terms of nitrogen and potassium chloride equivalent to 5 g/m^2 of potassium as potassium oxide were added as a solution to paddy humid soil in terms of 100 kg/m^2 of dry soil with a soil-to-liquid ratio of 0.7. The soil was placed into each container (in the shape of a cylinder approximately 7 cm in diameter) in an amount equivalent to 100 g of dry soil. The soil surface was flattened by giving it a slight press with a flat plate. Then, the soil was left at rest for one day at 4° C. […] The seeds were then half-buried in the soil. After that, at a constant temperature of 20° C., the water level was kept by adding water to such an extent that the seeds were slightly covered with water. Six containers were allotted for each condition, and the proportion of seedling establishment (proportion of individual plants that survived) was measured after two weeks. It should be noted that in each of FIGS. 20a and 20b, the horizontal axis represents the number of moles (mmol) of molybdenum that adhered per gram of dry seed. In each of FIGS. 20a and 20b, the dots correspond to the numbers of moles of 0, 0.01, 0.02, 0.05, 0.1, 0.2, and 0.5 mmol, starting from the left. […]"}}, "data": [{"substance": "Triammonium 12-moblydo(VI)phosphate trihydrate [Ammonium molybdophosphate]", "values": [{"measurement": "proportion of seedling establishment", "setting": "[1]", "value": "improvements in proportion of seedling establishment"}, {"measurement": "molybdenum amount at which the substance stops dissolving", "setting": "[2]", "value": "approximately 0.2 mM"}, {"measurement": "molybdenum or tungsten amount leading to improvements in proportion of seedling establishment", "setting": "[3]; polyvinyl alcohol adhesive, compared with 0 mmol/g", "value": "≥ 0.02 mmol per gram of dry seeds"}, {"measurement": "proportion of seedling establishment", "setting": "[3]; molybdenum amount of 0.5 mmol/g or more, FIG. 11", "value": "~80", "unit": "%"}, {"measurement": "dry weight of the shoots at harvest time, trend with amount applied", "setting": "[4]; 0.03 to 0.3 mol/m^2 in terms of molybdenum", "value": "increase in dry weight of the shoots"}, {"measurement": "dry weight of the shoots at harvest time", "setting": "[4]; approximately 0.3 mol/m^2 molybdenum applied in February", "value": "approximately 0.25 kg/m^2"}, {"measurement": "proportion of seedling establishment", "setting": "[5]", "value": "improvements in proportion of seedling establishment"}]}]}
